Test results from patent publication US20110144128A1, “Heterocyclic Carboxamide Compounds as Steroid Nuclear Receptors Ligands” (EXELIXIS, INC., priority 2005, published 2011).

What was measured:
[1] = target: T1, human MR (Homo sapiens, UniProt P08235); test: GAL4-MR cell based assay, antagonist format
T1 construct: expressed in transfected cells; host or cells: CV-1 (African Green Monkey Kidney Cells), transiently transfected with pCMX-GAL4-MR
T1 sequence (P08235 671-984): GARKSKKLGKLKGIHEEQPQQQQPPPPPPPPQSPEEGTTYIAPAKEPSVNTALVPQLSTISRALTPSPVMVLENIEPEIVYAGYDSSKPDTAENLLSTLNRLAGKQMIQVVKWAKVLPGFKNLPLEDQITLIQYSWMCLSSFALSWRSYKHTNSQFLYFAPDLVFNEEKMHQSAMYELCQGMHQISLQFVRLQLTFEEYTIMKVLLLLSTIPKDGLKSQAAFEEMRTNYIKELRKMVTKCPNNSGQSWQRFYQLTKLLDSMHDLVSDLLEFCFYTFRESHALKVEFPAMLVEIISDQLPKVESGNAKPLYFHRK
Description: Compound activity was determined in a cell-based assay using a GAL4-MR chimera to identify compounds with the ability to modulate MR activity.
The pCMX-GAL4-MR expression plasmid was constructed by cloning nucleotides encoding amino acids 671 to 984 of human MR (see GenBank sequence AAA59571) into the vector pCMX-GAL4 (Perlmann et al., 1993,Genes & Development 7:1411-1422) comprising nucleotides encoding for amino acids 1-147 of the GAL4 DNA binding domain.
The TK-MH 100x4-Luc (GAL4UAS-TK-Luciferase) reporter construct was constructed by insertion of four copies of the Gal4 UAS (Kang et al. 1993, J. Biol. Chem. 268:9629-9635) into the Hind III site of TK-Luc. The parental plasmid, TK-Luc, was prepared by insertion of the Herpes simplex virus thymidine kinase gene promoter (−105 to +51) obtained from the plasmid pBLCAT2 by digestion with HindIII and XhoI (described in Luckow et al., 1987, Nuc. Acid. Res. 15:5490) into the plasmid MMTV-LUC described by Hollenberg and Evans, 1988, Cell 55:899-906) after removal of MMTV-LTR promoter sequence from MMTV-LUC via digestion with HindIII and XhoI. Correct cloning was confirmed by restriction digestion and/or sequencing.
Assays were performed using CV-1 (African Green Monkey Kidney Cells) (ATCC) cells grown in T175 flasks at a density of 3×10^6 cells/flask in DMEM with 5% FBS. Cells were transfected one day after plating at 70-80 percent confluency with a DNA mixture containing (per T175 flask) 9 […] pCMX-GAL4-MR, 9 μg TK-MH100x4-Luc, and 2 μg pCMX β-Gal using the transfection reagent FuGENE6 (Roche Molecular Biochemicals, Indianapolis, Ind.) following recommended protocols and instructions provided by the manufacturer, and incubated with transfection reagents for 5 hours at 37° C.
Transfected cells were trypsinized, resuspended in media, and 45 μL was added to assay plates at a density of approximately 5,000 cells/well using a MultiDrop dispenser (MTX Lab Systems, Inc., VA). The assay plates containing both compounds and screening cells were incubated for approximately 20 hours at 37° C. and 5% CO2 in a tissue culture incubator.
After incubation of the transfected cells with compounds, Lysis buffer (1% Triton X-100, 10% Glycerol, 5 mM DTT, 1 mM EGTA, 25 mM Tricine, pH 7.8) and Luciferin assay buffer (0.73 mM ATP, 22.3 mM Tricine, 0.11 mM EDTA, 33.3 mM DTT, 0.2M MgSO4, 11 mM Luciferin, 6.1 mM Coenzyme A, 0.01 mM HEPES, pH 7.8) were prepared. Media was removed from the plates and lysis buffer and luciferin assay buffer mixed in a 1:1 ratio and then 30 μl of the mixture was added to each well using a Multidrop dispenser. Plates were read on the Northstar (Applied Biosystems, Foster City, Calif.) and data was analyzed using ActivityBase (ID Business Solutions, Ltd., Guildford, Surrey, UK). If required, luciferase values may be normalized for transfection efficiency by measuring β-galactosidase activity based on expression from the pCMX-βGal expression plasmid as described previously (Willy et al., 1995, Gene & Development, 9:1033-1045).
(§1) The following table provides in vitro MR activity data of representative compounds described in the Examples. […] The “+” mark under the selectivity column is given to those compounds having greater than ten-fold antagonist activity against MR compared to at least one nuclear receptor selected from AR, ERα, GR and PR, as determined from the GAL4-AR, GAL4-ERα, GAL4-GR and GAL4-PR assays. The “++” mark under the selectivity column identifies those compounds having greater than ten-fold antagonist activity against MR compared to the four nuclear receptors AR, ERα, GR and PR, as determined from the GAL4-AR, GAL4-ERα, GAL4-GR and GAL4-PR assays.

[2] = tested on: AR, ERα, GR and PR; test: selectivity assays GAL4-AR, GAL4-ERα, GAL4-GR and GAL4-PR, antagonist mode; type: cell-based; conditions: antagonist activity against MR compared to AR
Description: In certain cases, compounds were also evaluated for activity in selectivity assays with other steroid hormone receptor members, including AR, ER, GR and PR, as well as GAL4 alone. Steroid receptors used for selectivity assays were essentially generated as described above for pCMX-GAL4-MR, and comprised the LBD and a portion of the hinge region of the nuclear receptor of interest cloned in frame into the vector pCMX-GAL4 (Perlmann et al., 1993,Genes & Development 7:1411-1422) as described above.
Assays run in antagonist mode included agonists as follows: AR; 25 nM dihydrotestosterone (DHT), ER; 4.5 nM estradiol, GR; 20 nM dexamethasone, and PR; 2 nM medroxyprogesterone (MPA), respectively. Assays run in agonist mode contained no supplemental compounds.
as §1

Structure (SMILES) | IC50 [1] | Selectivity [2]
Cc1nc(C(=O)Nc2ccc(S(C)(=O)=O)cc2)n(C)c1-c1ccccc1Oc1ccccc1 [1,4-dimethyl-5-(2-phenoxy-phenyl)-1H-imidazole-2-carboxylic acid (4-methanesulfonyl-phenyl)-amide] | < 500 nM | ++ (greater than ten-fold antagonist activity against MR compared to the four nuclear receptors AR, ERα, GR and PR)
Cc1c(C(=O)Nc2ccc(S(C)(=O)=O)cc2)nn(C)c1-c1ccccc1C(F)(F)F [1,4-dimethyl-5-(2-trifluoromethyl-phenyl)-1H-pyrazole-3-carboxylic acid (4-methanesulfonyl-phenyl)-amide] | < 500 nM | + (greater than ten-fold antagonist activity against MR compared to at least one nuclear receptor selected from AR, ERα, GR and PR)
Cc1c(C(=O)Nc2ccc(S(N)(=O)=O)cc2)cn(C)c1-c1ccccc1C(F)(F)F [1,4-dimethyl-5-(2-trifluoromethyl-phenyl)-1H-pyrrole-3-carboxylic acid (4-sulfamoyl-phenyl)-amide] | < 500 nM | ++ (greater than ten-fold antagonist activity against MR compared to the four nuclear receptors AR, ERα, GR and PR)
Cc1cc(C(=O)Nc2ccc(S(C)(=O)=O)cc2)c(C)n1-c1ccccc1/C=C/C(C)(C)C [1-[2-((E)-3,3-Dimethyl-but-1-enyl)-phenyl]-2,5-dimethyl-1H-pyrrole-3-carboxylic acid (4-methanesulfonyl-phenyl)-amide] | < 500 nM | ++ (greater than ten-fold antagonist activity against MR compared to the four nuclear receptors AR, ERα, GR and PR)
Cc1cc(C(=O)Nc2ccc(S(C)(=O)=O)cc2)c(C)n1-c1ccc(NC(=O)c2ccc(C(F)(F)F)cc2C(F)(F)F)cc1C(F)(F)F [1-[4-(2,4-bis-trifluoromethyl-benzoylamino)-2-trifluoromethyl-phenyl]-2,5-dimethyl-1H-pyrrole-3-carboxylic acid (4-methanesulfonyl-phenyl)-amide] | 1000 to 5000 nM | + (greater than ten-fold antagonist activity against MR compared to at least one nuclear receptor selected from AR, ERα, GR and PR)
Cc1ccc(NC(=O)c2cc(C)n(-c3ccccc3C(F)(F)F)c2C)cc1Cl [2,5-Dimethyl-1-(2-trifluoromethyl-phenyl)-1H-pyrrole-3-carboxylic acid (3-chloro-4-methyl-phenyl)-amide] | < 500 nM | –
Cc1ccc(NC(=O)c2cc(C)n(-c3ccccc3C(F)(F)F)c2C)cc1F [2,5-Dimethyl-1-(2-trifluoromethyl-phenyl)-1H-pyrrole-3-carboxylic acid (3-fluoro-4-methyl-phenyl)-amide] | 500 to 1000 nM | –
Cc1cc(C(=O)Nc2ccc(S(N)(=O)=O)cc2)c(C)n1-c1ccccc1C(F)(F)F [2,5-Dimethyl-1-(2-trifluoromethyl-phenyl)-1H-pyrrole-3-carboxylic acid (4-sulfamoyl-phenyl)-amide] | < 500 nM | ++ (greater than ten-fold antagonist activity against MR compared to the four nuclear receptors AR, ERα, GR and PR)
Cc1cnc(NC(=O)c2cc(C)n(-c3ccccc3C(F)(F)F)c2C)s1 [2,5-Dimethyl-1-(2-trifluoromethyl-phenyl)-1H-pyrrole-3-carboxylic acid (5-methyl-thiazol-2-yl)-amide] | < 500 nM | –
Cc1cc(C(=O)Nc2ccc3ccccc3c2)c(C)n1-c1ccccc1C(F)(F)F [2,5-Dimethyl-1-(2-trifluoromethyl-phenyl)-1H-pyrrole-3-carboxylic acid naphthalen-2-ylamide] | < 500 nM | –
Cc1cc(C(=O)Nc2ccc(S(C)(=O)=O)cc2)c(C)n1-c1ccccc1C(=O)Nc1cccc([N+](=O)[O-])c1 [2,5-Dimethyl-1-[2-(3-nitro-phenylcarbamoyl)-phenyl]-1H-pyrrole-3-carboxylic acid (4-methanesulfonyl-phenyl)-amide] | 500 to 1000 nM | + (greater than ten-fold antagonist activity against MR compared to at least one nuclear receptor selected from AR, ERα, GR and PR)
Cc1cc(C(=O)Nc2ccc(S(=O)(=O)NC(=N)N)cc2)c(C)n1-c1ccccc1C(F)(F)F [2,5-Dimethyl-1-[2-(trifluoromethyl)phenyl]-1H-pyrrole-3-carboxylic acid (4-guanidinosulfonyl-phenyl)-amide] | 1000 to 5000 nM | + (greater than ten-fold antagonist activity against MR compared to at least one nuclear receptor selected from AR, ERα, GR and PR)
Cc1cc(C(=O)Nc2ccc(S(C)(=O)=O)cc2)c(C)n1-c1cccc2ccccc12 [2,5-Dimethyl-1-naphthalen-1-yl-1H-pyrrole-3-carboxylic acid (4-methanesulfonyl-phenyl)-amide] | < 500 nM | ++ (greater than ten-fold antagonist activity against MR compared to the four nuclear receptors AR, ERα, GR and PR)
COc1cc(NC(=O)c2cc(C)n(-c3ccccc3C(F)(F)F)c2C)ccc1S(N)(=O)=O [2,5-dimethyl-1-(2-trifluoromethyl-phenyl)-1H-pyrrole-3-carboxylic acid (3-methoxy-4-sulfamoyl-phenyl)-amide] | < 500 nM | ++ (greater than ten-fold antagonist activity against MR compared to the four nuclear receptors AR, ERα, GR and PR)
Cc1cc(C(=O)Nc2ccc(NS(C)(=O)=O)cc2)c(C)n1-c1ccccc1C(F)(F)F [2,5-dimethyl-1-(2-trifluoromethyl-phenyl)-1H-pyrrole-3-carboxylic acid (4-methanesulfonylamino-phenyl)-amide] | 500 to 1000 nM | + (greater than ten-fold antagonist activity against MR compared to at least one nuclear receptor selected from AR, ERα, GR and PR)
Cc1cc(C(=O)Nc2ccc(S(=O)(=O)C(C)C)cc2)c(C)n1-c1ccccc1C(F)(F)F [2,5-dimethyl-1-(2-trifluoromethyl-phenyl)-1H-pyrrole-3-carboxylic acid [4-(propane-2-sulfonyl)-phenyl]-amide] | 500 to 1000 nM | + (greater than ten-fold antagonist activity against MR compared to at least one nuclear receptor selected from AR, ERα, GR and PR)
Cc1sc(C(=O)Nc2ccc(S(C)(=O)=O)cc2)c(C)c1-c1ccccc1C(F)(F)F [3,5-dimethyl-4-(2-trifluoromethyl-phenyl)-thiophene-2-carboxylic acid (4-methanesulfonyl-phenyl)-amide] | 500 to 1000 nM | –
Cc1c(C(=O)Nc2ccc(S(C)(=O)=O)cc2)ncn1-c1ccccc1C(F)(F)F [5-methyl-1-(2-trifluoromethyl-phenyl)-1H-imidazole-4-carboxylic acid (4-methanesulfonyl-phenyl)-amide] | 1000 to 5000 nM | –
